Patent US20220370416A1, “COMPOUNDS AND METHODS FOR TARGETED DEGRADATION OF KRAS” (Arvinas Operations, Inc., priority 2020, published 2022)

Biological target: HiBit-KRAS^G12C (Homo sapiens, UniProt P01116, G12C)
Assay: HiBit degradation assay in SW1573 HiBit-KRas^G12C cells
Type: cell-based
Set-up: expressed in transfected cells; host or cells: SW1573 (clone E6), modified pcDNA3.1 vector, TK promoter
Settings: SW1573 HiBit-KRas^G12C, 0.1% DMSO, 24 hours; read-out: KRas^G12C-HIBit (SW1573; 0.1% DMSO) DC50*
Description: Reagents. SW1573 (CRL-2170) and MiaPaCa-2 (CRL-1420) cells were purchased from ATCC. Both cell lines are […] for the G12C mutation in KRAS. SW1573 cells were cultured in DMEM+F12+Glutamax (+Sodium Bicarbonate, +sodium pyruvate, Thermofisher scientific, #10565) supplemented with 10% FBS (Thermofisher scientific, #2060357) and 1% Antibiotic-Antimycotic (Thermofisher scientific, #15240096). MiaPaCa-2 cells were cultured in DMEM+Glutamax media (Thermofisher scientific, #10566) supplemented with 10% FBS (Thermofisher scientific, #2060357) and 1% Antibiotic-Antimycotic (Thermofisher scientific, #15240096). For degradation assays, 384 well plates were purchased from Corning (Corning® CellBIND® 384-well Flat Clear Bottom Black Polystyrene Microplates, Low Flange, #3770). Gambogic acid was purchased from Selleckchem (#S2448). Alamar blue was purchased from Thermofisher scientific (A50101) and used according to manufacturer instructions. The Nano-Glo® HiBit Lytic Detection System and Nano-Glo® HiBit Blotting System were purchased from Promega (#N3050 and #N2410) and used according to manufacturer instructions.
To create the SW1573 HiBit-KRAS^G12C cell line, the nucleotide sequence encoding the 11 amino acid HiBit tag from Promega (Schwinn, M. K. et al. (2018) CRISPR-mediated tagging of endogenous proteins with a luminescent peptide. ACS Chem. Biol. 13(2), 467-474) was appended to the N-terminus of the KRAS^G12C coding sequence. This synthesized DNA was cloned into a modified pcDNA3.1 vector under the control of the thymidine kinase (TK) promoter. This HiBit-KRAS^G12C expressing plasmid was transfected into parental SW1573 cells and colonies were selected using 400 μg/mL zeocin. The resulting clonal lines were screened for expression of HiBit-KRAS^G12C protein using Nano-Glo® HiBit Blotting System. A luminescent band of the correct size for HiBit-KRAS^G12C was detected in several clones. Clone E6 was selected for further studies.
Either SW1573 HiBit-KRas^G12C or MiaPaCa-2 HiBit-KRas^G12C cells were plated at 9000 cells/well in a 384 well plate (Corning #3770). Exemplary heterobifunctional molecules and positive controls were diluted in the appropriate cell media and applied to the plated cells resulting in a final concentration titration of 10 μM to 20 nM in either 0.1% or 0.5% dimethyl sulfoxide (DMSO). Gambogic acid was used as a positive control for cytotoxicity and titrated from 10 μM to 78 nM. All assays were performed in triplicate. Cells were treated with compounds for 24 hours at 37° C. in an incubator containing 5% CO2. Following treatment, alamar blue was used to determine if any compounds led to a loss in cell viability after 24 hours. The 10× alamar blue reagent was added to a final concentration of 1× as recommended by the manufacturer and cells were returned to the incubator for 4 hours. Plates were then allowed to equilibrate to room temperature and fluorescence was measured using a Perkin-Elmer EnVision. After completion of the fluorescence read, the liquid from each well was removed and the cells were washed with PBS. The Nano-Glo® HiBiT detection reagent was prepared according to the manufacturer's instructions and added to each well after the PBS wash was removed. Following incubation at room temperature for 45 minutes, the luminescence was read using the ultra-sensitive luminescence aperture on the Envision instrument.
Fluorescence values from the alamar blue treatment were normalized to the DMSO only control for each compound titration. We hypothesized that compounds that led to a ≥50% loss in cell viability of the KRAS-independent SW1573 HiBit-KRas^G12C cells were likely generally cytotoxic and loss of HiBit-KRAS^G12C signal from these compounds may be due to lower cell number and not specific KRAS^G12C degradation. These points were therefore excluded from the data analysis for degradation. […]

HiBit-KRAS^G12C, sequence (P01116 1-186 isoform P01116-2 G12C limits assumed): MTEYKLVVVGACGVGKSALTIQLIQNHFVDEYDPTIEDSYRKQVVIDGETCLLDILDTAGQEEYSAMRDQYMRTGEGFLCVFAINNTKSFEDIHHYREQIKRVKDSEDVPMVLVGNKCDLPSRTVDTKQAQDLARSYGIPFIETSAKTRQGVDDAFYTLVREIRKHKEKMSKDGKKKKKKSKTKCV

Row | Structure (SMILES) | DC50 [nM]
1 | C=CC(=O)N1CCN(c2nc(O[C@H](C)CN3CCC(COc4cc([C@H](C(=O)N5C[C@H](O)C[C@H]5C(=O)N[C@@H](C)c5ccc(-c6scnc6C)cc5)C(C)C)on4)CC3)nc3c(F)c(-c4cc(O)cc5ccccc45)c(Cl)cc23)CC1 [Compound 19, (2S,4R)-1-[(2R)-2-[3-({1-[(2R)-2-{[6-chloro-8-fluoro-7-(3-hydroxynaphthalen-1-yl)-4-[4-(prop-2-enoyl)piperazin-1-yl]quinazolin-2-yl]oxy}propyl]piperidin-4-yl}methoxy)-1,2-oxazol-5-yl]-3-methylbutanoyl]-4-hydroxy-N-[(1S)-1-[4-(4-methyl-1,3-thiazol-5-yl)phenyl]ethyl]pyrrolidine-2-carboxamide] | > 1000
2 | C=CC(=O)N1CCN(c2nc(O[C@H](C)CN3CCC(CCCN4CCN(CC(=O)N[C@H](C(=O)N5C[C@H](O)C[C@H]5C(=O)N[C@@H](C)c5ccc(-c6scnc6C)cc5)C(C)(C)C)CC4)CC3)nc3c(F)c(-c4cc(O)cc5ccccc45)c(Cl)cc23)CC1 [Compound 56, (2S,4R)-1-[(2S)-2-{2-[4-(3-{1-[(2R)-2-{[6-chloro-8-fluoro-7-(3-hydroxynaphthalen-1-yl)-4-[4-(prop-2-enoyl)piperazin-1-yl]quinazolin-2-yl]oxy}propyl]piperidin-4-yl}propyl)piperazin-1-yl]acetamido}-3,3-dimethylbutanoyl]-4-hydroxy-N-[(1S)-1-[4-(4-methyl-1,3-thiazol-5-yl)phenyl]ethyl]pyrrolidine-2-carboxamide] | > 1000
3 | C=CC(=O)N1CCN(c2nc(O[C@H](C)CN3CCC(CC(=O)N[C@H](C(=O)N4C[C@H](O)C[C@H]4C(=O)N[C@@H](C)c4ccc(-c5scnc5C)cc4)C(C)(C)C)CC3)nc3c(F)c(-c4cc(O)cc5ccccc45)c(Cl)cc23)CC1 [Compound 38, (2S,4R)-1-[(2S)-2-(2-{1-[(2R)-2-{[6-chloro-8-fluoro-7-(3-hydroxynaphthalen-1-yl)-4-[4-(prop-2-enoyl)piperazin-1-yl]quinazolin-2-yl]oxy}propyl]piperidin-4-yl}acetamido)-3,3-dimethylbutanoyl]-4-hydroxy-N-[(1S)-1-[4-(4-methyl-1,3-thiazol-5-yl)phenyl]ethyl]pyrrolidine-2-carboxamide] | > 1000
4 | C=CC(=O)N1CCN(c2nc(O[C@H](C)CN3CCC(OCCOCCOc4cc(-c5scnc5C)ccc4CNC(=O)[C@@H]4C[C@@H](O)CN4C(=O)[C@@H](c4cc(C)no4)C(C)C)CC3)nc3c(F)c(-c4cc(O)cc5ccccc45)c(Cl)cc23)CC1 [Compound 72, (2S,4R)-N-[(2-{2-[2-({1-[(2R)-2-{[6-chloro-8-fluoro-7-(3-hydroxynaphthalen-1-yl)-4-[4-(prop-2-enoyl)piperazin-1-yl]quinazolin-2-yl]oxy}propyl]piperidin-4-yl}oxy)ethoxy]ethoxy}-4-(4-methyl-1,3-thiazol-5-yl)phenyl)methyl]-4-hydroxy-1-[(2R)-3-methyl-2-(3-methyl-1,2-oxazol-5-yl)butanoyl]pyrrolidine-2-carboxamide] | > 1000
5 | C=CC(=O)N1CCN(c2nc(O[C@H](C)CN3CCC(OCCOc4cc(-c5scnc5C)ccc4CNC(=O)[C@@H]4C[C@@H](O)CN4C(=O)[C@@H](c4cc(C)no4)C(C)C)CC3)nc3c(F)c(-c4cc(O)cc5ccccc45)c(Cl)cc23)CC1 [Compound 78, (2S,4R)-N-({2-[2-({1-[(2R)-2-{[6-chloro-8-fluoro-7-(3-hydroxynaphthalen-1-yl)-4-[4-(prop-2-enoyl)piperazin-1-yl]quinazolin-2-yl]oxy}propyl]piperidin-4-yl}oxy)ethoxy]-4-(4-methyl-1,3-thiazol-5-yl)phenyl}methyl)-4-hydroxy-1-[(2R)-3-methyl-2-(3-methyl-1,2-oxazol-5-yl)butanoyl]pyrrolidine-2-carboxamide] | > 1000
6 | C=CC(=O)N1CCN(c2nc(O[C@H](C)CN3CCC(OCCOCCOCCOCCOCCOc4cc(-c5scnc5C)ccc4CNC(=O)[C@@H]4C[C@@H](O)CN4C(=O)[C@H](c4cc(C)no4)C(C)C)CC3)nc3c(F)c(-c4cc(O)cc5ccccc45)c(Cl)cc23)CC1 [Compound 79, (2S,4R)-N-[(2-{[14-({1-[(2R)-2-{[6-chloro-8-fluoro-7-(3-hydroxynaphthalen-1-yl)-4-[4-(prop-2-enoyl)piperazin-1-yl]quinazolin-2-yl]oxy}propyl]piperidin-4-yl}oxy)-3,6,9,12-tetraoxatetradecan-1-yl]oxy}-4-(4-methyl-1,3-thiazol-5-yl)phenyl)methyl]-4-hydroxy-1-[(2S)-3-methyl-2-(3-methyl-1,2-oxazol-5-yl)butanoyl]pyrrolidine-2-carboxamide] | > 1000
7 | C=CC(=O)N1CCN(c2nc(O[C@H](C)CN3CCC(OCCOCC(=O)N[C@H](C(=O)N4C[C@H](O)C[C@H]4C(=O)N[C@@H](C)c4ccc(-c5scnc5C)cc4)C(C)(C)C)CC3)nc3c(F)c(-c4c(O)cccc4F)c(Cl)cc23)C[C@H]1C [Compound 44, (2S,4R)-1-[(2S)-2-{2-[2-({1-[(2R)-2-{[6-chloro-8-fluoro-7-(2-fluoro-6-hydroxyphenyl)-4-[(3R)-3-methyl-4-(prop-2-enoyl)piperazin-1-yl]quinazolin-2-yl]oxy}propyl]piperidin-4-yl}oxy)ethoxy]acetamido}-3,3-dimethylbutanoyl]-4-hydroxy-N-[(1S)-1-[4-(4-methyl-1,3-thiazol-5-yl)phenyl]ethyl]pyrrolidine-2-carboxamide] | > 1000
8 | C=CC(=O)N1CCN(c2nc(OC[C@@H]3C[C@@H](OCCOCCOCCOCCOCCOCCOCCOCCOCC(=O)N[C@H](C(=O)N4C[C@H](O)C[C@H]4C(=O)N[C@@H](C)c4ccc(-c5scnc5C)cc4)C(C)(C)C)CN3C)nc3c2CCN(c2cccc4ccccc24)C3)C[C@@H]1CC#N [Compound 74, (2S,4R)-1-[(2S)-2-(26-{[(3R,5S)-5-[({4-[(3S)-3-(cyanomethyl)-4-(prop-2-enoyl)piperazin-1-yl]-7-(naphthalen-1-yl)-5H,6H,7H,8H-pyrido[3,4-d]pyrimidin-2-yl}oxy)methyl]-1-methylpyrrolidin-3-yl]oxy}-3,6,9,12,15,18,21,24-octaoxahexacosanamido)-3,3-dimethylbutanoyl]-4-hydroxy-N-[(1S)-1-[4-(4-methyl-1,3-thiazol-5-yl)phenyl]ethyl]pyrrolidine-2-carboxamide] | > 1000
9 | C=CC(=O)N1CCN(c2nc(OCCN3CCC(COCC(=O)N[C@H](C(=O)N4C[C@@H](O)C[C@H]4C(=O)N[C@@H](C)c4ccc(-c5scnc5C)cc4)C(C)(C)C)CC3)nc3c(F)c(-c4cc(O)cc5ccccc45)c(Cl)cc23)CC1 [Compound 8, (2S,4S)-1-[(2S)-2-(2-{[1-(2-{[6-chloro-8-fluoro-7-(3-hydroxynaphthalen-1-yl)-4-[4-(prop-2-enoyl)piperazin-1-yl]quinazolin-2-yl]oxy}ethyl)piperidin-4-yl]methoxy}acetamido)-3,3-dimethylbutanoyl]-4-hydroxy-N-[(1S)-1-[4-(4-methyl-1,3-thiazol-5-yl)phenyl]ethyl]pyrrolidine-2-carboxamide] | > 1000
